Reference: patent publication US10301320B2, “Compositions and methods of modulating 15-PGDH activity” (CASE WESTERN RESERVE UNIVERSITY, priority 2012, dated 2019)

Molecular target: recombinant 15-PGDH protein (Homo sapiens (Human), UniProt P15428)
Assay: Inhibition of enzymatic activity of recombinant 15-PGDH in vitro;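 note: activity of recombinant human 15-PGDH assayed in vitro using PGE2 as the substrate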
Format: biochemical
Details: read-out: Enzyme inhibition % ([…]), recombinant 15-PGDH, […] compound; read-out: Enzyme inhibition % (2.5 μM)

Chain of recombinant 15-PGDH protein (P15428 whole entry): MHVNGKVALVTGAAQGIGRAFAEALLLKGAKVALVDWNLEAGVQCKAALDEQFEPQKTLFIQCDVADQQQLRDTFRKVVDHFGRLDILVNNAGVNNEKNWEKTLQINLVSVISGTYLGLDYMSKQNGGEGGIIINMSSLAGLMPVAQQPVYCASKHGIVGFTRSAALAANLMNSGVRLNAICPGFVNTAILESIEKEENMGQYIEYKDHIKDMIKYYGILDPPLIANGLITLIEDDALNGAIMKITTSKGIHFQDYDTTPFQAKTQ

Row | inhibition at […] | Compound
1 | -14.7% | COc1ccc(OC)c(N(C(C)C(=O)Nc2cccnc2)S(=O)(=O)c2ccccc2)c1 (stereo not drawn) [SW202991]
2 | 15.1% | COc1ccc(OC)c(N(CC(=O)Nc2ccccc2)S(=O)(=O)c2ccccc2)c1 [SW203687]
3 | 36.8% | COc1ccc(OC)c(N(CC(=O)Nc2cnccn2)S(=O)(=O)c2ccccc2)c1 [SW203681]
4 | 2.62% | COc1ccc(OC)c(N(CC(=O)Nc2nccs2)S(=O)(=O)c2ccccc2)c1 [SW203691]
5 | 15.2% | COc1ccc(OC)c(N(CC(=O)N2CCc3ccccc32)S(=O)(=O)c2ccccc2)c1 [SW208003]
6 | 58.7% | COc1ccc(S(=O)(=O)N(CC(=O)Nc2cccnc2)c2cc(C(F)(F)F)ccc2C(F)(F)F)cc1 [SW208008]
7 | 13.8% | COc1ccc(OC)c(N(CC(=O)Nc2cccc(Cl)c2)S(=O)(=O)c2ccccc2)c1 [SW202985]
8 | 10.3% | COc1ccc(OC)c(N(CC(=O)Nc2ccc(C)nc2)[S@SP3](=O)(=O)c2ccccc2)c1 [SW202988]
9 | 15.7% | COc1ccc(OC)c(N(CC(=O)N2CCCc3ccccc32)S(=O)(=O)c2ccccc2)c1 [SW208006]
10 | 13.1% | COc1ccc(OC)c(CN(CC(=O)Nc2cccnc2)S(=O)(=O)c2ccccc2)c1 [SW203688]
11 | 22.9% | COc1ccc(OC)c(N(CC(=O)Nc2cncc(Cl)c2)S(=O)(=O)c2ccccc2)c1 [SW202990]
12 | 44.3% | COc1ccc(OC)c(N(CC(=O)Nc2ccnnc2)S(=O)(=O)c2ccccc2)c1 [SW203685]
13 | 5.82% | COc1ccc(OC)c(N(CC(=O)N2CCCCCC2)S(=O)(=O)c2ccccc2)c1 [SW208000]

Continued, compound first:

Row | Compound | inhibition at […]
14 | COc1ccc(OC)c(NCC(=O)Nc2cccnc2)c1 [SW202948] | 28.3%
15 | COc1ccc(OC)c(N(CC(=O)Nc2ccnc(Cl)c2)S(=O)(=O)c2ccccc2)c1 [SW202946] | 81.6%
16 | COc1ccc(OC)c(N(CC(=O)Nc2cccnc2)S(=O)(=O)c2ccccc2F)c1 [SW202947] | 28.8%
17 | COc1ccc(OC)c(N(CC(=O)Nc2ccc(Cl)nc2)S(=O)(=O)c2ccccc2)c1 [SW202970] | 17.5%
18 | COc1ccc(OC)c(N(CC(=O)Nc2cccnc2Cl)S(=O)(=O)c2ccccc2)c1 [SW202973] | 3.3%
19 | COc1ccc(OC)c(N(CC(=O)Nc2cccnc2)S(=O)(=O)c2ccc(C)cc2)c1 [SW202939] | 53.5%
20 | COc1ccc(OC)c(N(CC(=O)Nc2cc(C)cnc2Cl)S(=O)(=O)c2ccccc2)c1 [SW202972] | -6.29%
21 | COc1ccc(OC)c(N(CC(=O)Nc2cccnc2C)S(=O)(=O)c2ccccc2)c1 [SW202968] | -7.09%
22 | COc1ccc(OC)c(N(CC(=O)Nc2cccnc2)S(=O)(=O)c2ccccc2C#N)c1 [SW202945] | 8.83%
23 | COc1ccc(OC)c(N(CC(=O)Nc2cnccc2C)S(=O)(=O)c2ccccc2)c1 [SW202967] | -11.6%
24 | COc1ccc(OC)c(N(CC(=O)Nc2cccnc2)S(=O)(=O)c2ccccc2Cl)c1 [SW202949] | 12.5%
25 | COc1ccc(OC)c(N(CC(=O)O)S(=O)(=O)c2ccccc2)c1 [SW122063] | -12.2%
26 | COC(=O)CN(c1cc(OC)ccc1OC)S(=O)(=O)c1ccccc1 [SW202980] | -4.19%
27 | COc1ccc(OC)c(N(CC(=O)Nc2cncc(C)c2)S(=O)(=O)c2ccccc2)c1 [SW202974] | -4.42%
28 | COc1ccc(OC)c(N(CC(=O)Nc2ccccc2C)S(=O)(=O)c2ccccc2)c1 [SW202975] | -14.8%
29 | COc1ccc(OC)c(N(CC(=O)Nc2cccnc2)S(=O)(=O)c2ccccc2C)c1 [SW202943] | -7.42%

Same assay, conditions: read-out: Enzyme inhibition % ([…]), recombinant 15-PGDH, […] compound; read-out: Enzyme inhibition % (7.5 μM)

Row | inhibition at […] | Compound
30 | -6% | COc1ccc(OC)c(N(C(C)C(=O)Nc2cccnc2)S(=O)(=O)c2ccccc2)c1 (stereo not drawn) [SW202991]
31 | 33.5% | COc1ccc(OC)c(N(CC(=O)Nc2ccccc2)S(=O)(=O)c2ccccc2)c1 [SW203687]
32 | 64.9% | COc1ccc(OC)c(N(CC(=O)Nc2cnccn2)S(=O)(=O)c2ccccc2)c1 [SW203681]
33 | 20.9% | COc1ccc(OC)c(N(CC(=O)N2CCc3ccccc32)S(=O)(=O)c2ccccc2)c1 [SW208003]
34 | 70.9% | COc1ccc(S(=O)(=O)N(CC(=O)Nc2cccnc2)c2cc(C(F)(F)F)ccc2C(F)(F)F)cc1 [SW208008]
35 | 30.9% | COc1ccc(OC)c(N(CC(=O)Nc2cccc(Cl)c2)S(=O)(=O)c2ccccc2)c1 [SW202985]
36 | 33.7% | COc1ccc(OC)c(N(CC(=O)Nc2ccc(C)nc2)[S@SP3](=O)(=O)c2ccccc2)c1 [SW202988]
37 | 24.8% | COc1ccc(OC)c(N(CC(=O)N2CCCc3ccccc32)S(=O)(=O)c2ccccc2)c1 [SW208006]
38 | 40% | COc1ccc(OC)c(CN(CC(=O)Nc2cccnc2)S(=O)(=O)c2ccccc2)c1 [SW203688]
39 | 47.2% | COc1ccc(OC)c(N(CC(=O)Nc2cncc(Cl)c2)S(=O)(=O)c2ccccc2)c1 [SW202990]
40 | 73.3% | COc1ccc(OC)c(N(CC(=O)Nc2ccnnc2)S(=O)(=O)c2ccccc2)c1 [SW203685]
41 | 12.5% | COc1ccc(OC)c(N(CC(=O)N2CCCCCC2)S(=O)(=O)c2ccccc2)c1 [SW208000]

The remaining lines, values behind:

Row | Compound | inhibition at […]
42 | COc1ccc(OC)c(NCC(=O)Nc2cccnc2)c1 [SW202948] | 56.7%
43 | COc1ccc(OC)c(N(CC(=O)Nc2ccnc(Cl)c2)S(=O)(=O)c2ccccc2)c1 [SW202946] | 89.8%
44 | COc1ccc(OC)c(N(CC(=O)Nc2cccnc2)S(=O)(=O)c2ccccc2F)c1 [SW202947] | 59.2%
45 | COc1ccc(OC)c(N(CC(=O)Nc2ccc(Cl)nc2)S(=O)(=O)c2ccccc2)c1 [SW202970] | 48%
46 | COc1ccc(OC)c(N(CC(=O)Nc2cccnc2Cl)S(=O)(=O)c2ccccc2)c1 [SW202973] | 13.6%
47 | COc1ccc(OC)c(N(CC(=O)Nc2cccnc2)S(=O)(=O)c2ccc(C)cc2)c1 [SW202939] | 78.3%
48 | COc1ccc(OC)c(N(CC(=O)Nc2cc(C)cnc2Cl)S(=O)(=O)c2ccccc2)c1 [SW202972] | -2.94%
49 | COc1ccc(OC)c(N(CC(=O)Nc2cccnc2C)S(=O)(=O)c2ccccc2)c1 [SW202968] | 0.78%
50 | COc1ccc(OC)c(N(CC(=O)Nc2cccnc2)S(=O)(=O)c2ccccc2C#N)c1 [SW202945] | 11.1%
51 | COc1ccc(OC)c(N(CC(=O)Nc2cnccc2C)S(=O)(=O)c2ccccc2)c1 [SW202967] | 0.94%
52 | COc1ccc(OC)c(N(CC(=O)Nc2cccnc2)S(=O)(=O)c2ccccc2Cl)c1 [SW202949] | 34.4%
53 | COc1ccc(OC)c(N(CC(=O)O)S(=O)(=O)c2ccccc2)c1 [SW122063] | -10.5%
54 | COC(=O)CN(c1cc(OC)ccc1OC)S(=O)(=O)c1ccccc1 [SW202980] | 1.44%
55 | COc1ccc(OC)c(N(CC(=O)Nc2cncc(C)c2)S(=O)(=O)c2ccccc2)c1 [SW202974] | 24.9%
56 | COc1ccc(OC)c(N(CC(=O)Nc2ccccc2C)S(=O)(=O)c2ccccc2)c1 [SW202975] | 4.53%
57 | COc1ccc(OC)c(N(CC(=O)Nc2cccnc2)S(=O)(=O)c2ccccc2C)c1 [SW202943] | 21.8%
